Test results published in patent US6426355B1, “Heterocyclic carboxamide-containing thiourea inhibitors of herpes viruses containing phenylenediamine group” (American Home Products, priority 1998, dated 2002).
In brackets after ≈: the same amount, converted by molar mass.

Columns and labels:
[1] = test system: HCMV recombinant mutant virus (RV145); experiment: HCMV microtiter plate assay (beta-glucuronidase reporter); assay type: cell-based, Human Cytomegalovirus; details: HCMV in human foreskin fibroblasts
Excerpt: Ninety-six well plate cultures of human foreskin fibroblasts are infected in the presence of inhibitor compound with a HCMV recombinant mutant virus whose genome contains the prokaryotic beta-glucuronidase gene (Jefferson, R. A., S. M. Burgess, and D. Hirsh. 1986. Beta-glucuronidase from Escherichia coli as a gene fusion marker. Proc. Natl. Acad. Sci. USA 83:8447-8451) whose expression is controlled by a viral promoter. An example of such a virus is RV145 (Jones, T. R., V. P. Muzithras, and Y. Gluzman. 1991. Replacement mutagenesis of the human cytomegalovirus genome: US10 and US11 gene products are nonessential. J. Virol. 65:5860-5872). Since it is under the control of a viral promoter, beta-glucuronidase expression is an indirect indicator of growth and replication of HCMV in this assay. At 96 hours post-infection, the infected cell lysates are prepared (using 50 mM sodium phosphate [pH7.0] containing 0.1% Triton X-100 and 0.1% sarkosyl) and assayed for beta-glucuronidase activity using a substrate for the enzyme which when cleaved yields either a product which can be measured colorimetrically in a spectrophotometer or fluorescently in a microfluorimeter. Examples of such substrates are p-nitrophenyl-beta-D-glucuronide and methylumbelliferylglucuronide, respectively. The presence of an antiviral compound is indicated by the reduced expression of the HCMV genome resident beta-glucuronidase gene, compared to the absence of inhibitor. […] Data from this assay generated using varying amounts of inhibitor compound is also used to estimate the IC50 of an inhibitor compound.

HSV-1 = experiment: HSV Antiviral (ELISA) assay; assay type: cell-based; details: HSV-1 in Vero cells
Experimental: Vero cells (ATCC #CCL-81) are plated on 96-well tissue culture plates at 3.5×10^4 cells per 100 μl tissue culture DMEM (Dulbecco's modified Eagle media) supplemented with 2% fetal bovine serum (FBS) in each well. After overnight incubation @ 37° C. (in 5% CO2) and 30 minutes prior to infection with HSV-1 (multiplicity of infection equal to 0.006), cells are either untreated, or treated with test compound (multiple concentrations) or reference standard drug control. After approximately 24 hours post-infection incubation @ 37° C. (in 5% CO2), cells are fixed for ELISA assay. The primary antibody is murine anti-HSV glycoprotein D monoclonal primary antibody and the secondary antibody is goat anti-mouse IgG linked to β-galactosidase. Thus the extent of viral replication is determined by assessing β-galactosidase activity by quantifying the generation of the 4-methyl umbelliferone fluorescent cleavage product after addition of the methyl umbelliferyl-β-D-galactoside (Sigma #M1633) substrate on a microfluorimeter (365 nm for excitation and 450 nm for emission). Antiviral activity (IC50) of the test compound is determined by comparing the flourescence obtained in absence of compound to that obtained in the presence of compound.

SMILES	IC50 (ug/ml) HCMV [1] [µg/mL]	IC50 (ug/ml) HSV (HSV-1) [µg/mL]
O=C(Nc1ccc(NC(=S)NCc2cccc(I)c2)cc1)c1csnn1 [Example 663]	0.01 (≈ 0.0202 µM)	>10
O=C(Nc1ccc(NC(=S)NCCOc2cc(Cl)cc(Cl)c2)cc1)c1ccco1 [Example 665]	0.02 (≈ 0.0444 µM)	5 (≈ 11.1 µM)
O=C(Nc1ccc(NC(=S)NCCOc2cccc(Cl)c2)cc1)c1ccco1 [Example 667]	0.03 (≈ 0.0721 µM)	8 (≈ 19.2 µM)
O=C(Nc1ccc(NC(=S)NCCOc2cccc(Cl)c2)cc1)c1csnn1 [Example 668]	0.009 (≈ 0.0207 µM)	>10
O=C(Nc1ccc(NC(=S)NCc2cc(C(F)(F)F)ccc2F)cc1)c1ccco1 [Example 670]	0.02 (≈ 0.0457 µM)	>10
O=C(Nc1ccc(NC(=S)NCc2cc(C(F)(F)F)ccc2F)cc1)c1csnn1 [Example 671]	0.005 (≈ 0.011 µM)	>10
CN(C)c1cc(CCNC(=S)Nc2ccc(NC(=O)c3csnn3)cc2)cc(C(F)(F)F)c1 [Example 674]	0.006 (≈ 0.0121 µM)	>10
O=C(Nc1ccc(NC(=S)NCc2ccc(F)c(F)c2)cc1)c1ccco1 [Example 675]	0.05 (≈ 0.129 µM)	>10
O=C(Nc1ccc(NC(=S)NCc2ccc(F)c(F)c2)cc1)c1csnn1 [Example 676]	0.013 (≈ 0.0321 µM)	>10
O=C(Nc1ccc(NC(=S)NCCSc2cccc(Br)c2)cc1)c1csnn1 [Example 678]	0.005 (≈ 0.0101 µM)	>10
O=C(Nc1ccc(NC(=S)NCCSc2cccc(Br)c2)cc1)c1ccco1 [Example 679]	0.01 (≈ 0.021 µM)	10 (≈ 21 µM)
COc1ccc(CCNC(=S)Nc2ccc(NC(=O)c3csnn3)cc2)cc1Br [Example 681]	0.02 (≈ 0.0406 µM)	>10
COc1ccc(Br)cc1CCNC(=S)Nc1ccc(NC(=O)c2csnn2)cc1 [Example 682]	0.006 (≈ 0.0122 µM)	>10
O=C(Nc1ccc(NC(=S)NCCc2ccccc2Cl)cc1)c1csnn1 [Example 683]	0.02 (≈ 0.0479 µM)	10 (≈ 23.9 µM)
O=C(Nc1ccc(NC(=S)NCCc2ccccc2F)cc1)c1csnn1 [Example 684]	0.005 (≈ 0.0125 µM)	10 (≈ 24.9 µM)
O=C(Nc1ccc(NC(=S)NCCc2ccc(Cl)cc2)cc1)c1csnn1 [Example 685]	0.006 (≈ 0.0144 µM)	10 (≈ 23.9 µM)
O=C(Nc1ccc(NC(=S)NCCC(c2ccccc2)c2ccccc2)cc1)c1csnn1 [Example 686]	0.007 (≈ 0.0148 µM)	>10
O=C(Nc1ccc(NC(=S)NCCOc2cc(Cl)cc(Cl)c2)cc1)c1csnn1 [Example 688]	0.006 (≈ 0.0128 µM)	>10
O=C(Nc1ccc(NC(=S)NCc2ccc(F)c(Cl)c2)cc1)c1csnn1 [Example 689]	0.007 (≈ 0.0166 µM)	7 (≈ 16.6 µM)
CC(C)(C)c1ccc(CNC(=S)Nc2ccc(NC(=O)c3csnn3)cc2)cc1 [Example 690]	0.004 (≈ 0.0094 µM)	7 (≈ 16.4 µM)
Cc1cc(C)cc(CNC(=S)Nc2ccc(NC(=O)c3csnn3)cc2)c1 [Example 691]	0.008 (≈ 0.0201 µM)	>10
Cc1cc(CCNC(=S)Nc2ccc(NC(=O)c3csnn3)cc2)ccc1N(C)C [Example 692]	0.04 (≈ 0.0908 µM)	6 (≈ 13.6 µM)
O=C(Nc1ccc(NC(=S)NCCOc2ccc(Br)cc2)cc1)c1csnn1 [Example 693]	0.03 (≈ 0.0627 µM)	>10
O=C(Nc1ccc(NC(=S)NCCOc2ccc(I)cc2)cc1)c1csnn1 [Example 694]	0.04 (≈ 0.0761 µM)	10 (≈ 19 µM)
O=C(Nc1ccc(NC(=S)NCCOc2ccc(Br)cc2)cc1)c1ccco1 [Example 697]	0.04 (≈ 0.0869 µM)	7 (≈ 15.2 µM)

SMILES	IC50 (ug/ml) HCMV [1] [µg/mL]	IC50 (ug/ml) HSV (HSV-1) [µg/mL]
O=C(Nc1ccc(NC(=S)NCCOc2ccc(I)cc2)cc1)c1ccco1 [Example 698]	0.04 (≈ 0.0788 µM)	6 (≈ 11.8 µM)
O=C(Nc1ccc(NC(=S)Nc2ccc(Cl)c(Cl)c2)cc1)c1cocn1 [Example 699]	0.016 (≈ 0.0393 µM)	>10
O=C(Nc1ccc(NC(=S)Nc2cc(Cl)cc(Cl)c2)cc1)c1cscn1 [Example 700]	0.004 (≈ 0.00945 µM)	>10
O=C(Nc1ccc(NC(=S)Nc2cc(C(F)(F)F)cc(C(F)(F)F)c2)cc1)c1cscn1 [Example 701]	0.008 (≈ 0.0163 µM)	>10
O=C(Nc1ccc(NC(=S)Nc2cc(Cl)cc(Cl)c2)cc1)c1cocn1 [Example 702]	0.01 (≈ 0.0246 µM)	4 (≈ 9.82 µM)
O=C(Nc1ccc(NC(=S)NCCOc2ccc(Cl)c(Cl)c2)cc1)c1csnn1 [Example 703]	0.007 (≈ 0.0149 µM)	>10
O=C(Nc1ccc(NC(=S)Nc2ccc(Cl)c(Cl)c2)cc1)c1cscn1 [Example 704]	0.006 (≈ 0.0142 µM)	>10
O=C(Nc1ccc(NC(=S)Nc2ccc(Cl)c(C(F)(F)F)c2)cc1)c1cscn1 [Example 705]	0.006 (≈ 0.0131 µM)	>10
O=C(Nc1ccc(NC(=S)NCCNc2ccccc2)cc1)c1csnn1 [Example 706]	0.04 (≈ 0.1 µM)	>10
O=C(Nc1ccc(NC(=S)NCCc2ccc(Cl)cc2Cl)cc1)c1csnn1 [Example 707]	0.005 (≈ 0.0111 µM)	>10
O=C(Nc1ccc(NC(=S)NCCc2cccc(C(F)(F)F)c2)cc1)c1csnn1 [Example 708]	0.005 (≈ 0.0111 µM)	>10
O=C(Nc1ccc(NC(=S)NCCc2c(Cl)cccc2Cl)cc1)c1csnn1 [Example 709]	0.05 (≈ 0.111 µM)	>10
O=C(Nc1ccc(NC(=S)NCCSc2ccc(Cl)c(Cl)c2)cc1)c1csnn1 [Example 710]	0.006 (≈ 0.0124 µM)	>10
O=C(Nc1ccc(NC(=S)NCCSc2cc(C(F)(F)F)ccc2F)cc1)c1csnn1 [Example 711]	0.004 (≈ 0.00798 µM)	>10
CCc1ccc(CCNC(=S)Nc2ccc(NC(=O)c3csnn3)cc2)cc1 [Example 713]	0.009 (≈ 0.0219 µM)	>10
O=C(Nc1ccc(NC(=S)Nc2ccc(Cl)c(C(F)(F)F)c2)cc1)c1cocn1 [Example 714]	0.02 (≈ 0.0454 µM)	>10
O=C(Nc1ccc(NC(=S)Nc2cc(C(F)(F)F)cc(C(F)(F)F)c2)cc1)c1cocn1 [Example 715]	0.03 (≈ 0.0632 µM)	>10
O=C(Nc1ccc(NC(=S)NCCc2ccc(F)c(F)c2)cc1)c1csnn1 [Example 716]	0.01 (≈ 0.0238 µM)	>10
O=C(Nc1ccc(NC(=S)NCCc2ccc(C(F)(F)F)cc2)cc1)c1csnn1 [Example 717]	0.003 (≈ 0.00664 µM)	>10
O=C(Nc1ccc(NC(=S)NCCc2ccc(Cl)c(Cl)c2)cc1)c1ccco1 [Example 718]	0.02 (≈ 0.046 µM)	6 (≈ 13.8 µM)
O=C(Nc1ccc(NC(=S)NCCc2cc(F)cc(F)c2)cc1)c1csnn1 [Example 720]	0.01 (≈ 0.0238 µM)	>10
O=C(Nc1ccc(NC(=S)NCCc2ccc([N+](=O)[O-])cc2)cc1)c1csnn1 [Example 722]	0.015 (≈ 0.035 µM)	>10
CC(Cc1ccccc1)NC(=S)Nc1ccc(NC(=O)c2csnn2)cc1 (stereo not shown) [Example 723]	0.03 (≈ 0.0755 µM)	>10
O=C(Nc1ccc(NC(=S)NCc2cccc(C(F)(F)F)c2)cc1)c1csnn1 [Example 731]	0.007 (≈ 0.016 µM)	>10
O=C(Nc1ccc(NC(=S)NCCOc2cccc(Br)c2)cc1)c1csnn1 [Example 734]	0.009 (≈ 0.0188 µM)	>10
